Assay results from patent US11013696B2, “Lipids and lipid compositions for the delivery of active agents” (Novartis AG, priority 2013, dated 2021).

Assay: Percent encapsulation of mRNA in lipid nanoparticles (Quant-iT Ribogreen)
Type: physicochemical
Conditions: Table 2; leptin mRNA in LNP with the cationic lipid
Procedure: All equipment and disposable supplies are certified free of RNase activity by the manufacturer or rendered RNase free by use of the RNaseZap reagent (LifeTechnologies). mRNA is encapsulated at a cationic lipid amine to mRNA phosphate (N:P) molar ratio of 4:1. Lipids (cationic lipid, DSPC, cholesterol and lipidated PEG or stealth lipid) are dissolved in ethanol. The molar ratios are 40:10:38:2, respectively. The mixture is sonicated briefly, then gently agitated for 5 minutes and then maintained at 37° C. until use. mRNA is exchanged into citrate buffer pH 5.8-6.0 by use of Amicon Ultra-15 centrifugal concentrators, and the final concentration is adjusted to 0.5 mg/ml and held at 37° C. until use. An equal volume of lipids in ethanol, mRNA in citrate buffer, and citrate buffer alone are drawn into disposable syringes. Tubing leading from syringes containing lipids and mRNA are attached to the T junction, and tubing leading from the syringe containing citrate buffer alone is paired with the tubing exiting the T-junction over a collection vessel containing a stir bar on an active stir plate. Syringes are placed in a syringe pump set to expel contents at a flow rate of 1 ml per minute.
The pump is activated, and the collected mRNA in lipid nanoparticles is transferred to SnakeSkin dialysis tubing (10,000 MWCO, Thermo Scientific). Material is dialyzed against RNAse- and pyrogen-free 1× phosphate buffered saline overnight at 4° C.
Percent encapsulation of mRNA in lipid nanoparticles is determined using the Quant-iT Ribogreen RNA Assay kit (Life Technologies). The LNP-mRNA suspension is assayed in buffer (mRNA outside the particle), and buffer plus Triton X-100 detergent (total mRNA). The difference calculated is the mRNA inside the particle. Prepare a 1000 ng/mL stock from the RNA provided in the kit and use this to generate a standard curve (0 ng/ml, 15.63-1000 ng/ml) in TE and TE+0.75% Triton X-100. Prepare LNP-mRNA samples in TE buffer and TE buffer +0.75% Triton X-100 with appropriate dilution so that reading is in the range of standard curve (400-2,000 fold). In a 384-well plate (Costar non-treated #3573) add 0.04 ml of standard (in duplicate) or sample (in triplicate) per well. Dilute Ribogreen reagent 240-fold in TE buffer and add 0.06 ml per well. Mix contents of wells and measure fluorescence (excitation=480 nm, emission=520 nm). Subtract background values (no RNA) from standard and test sample values and determine the concentrations of RNA in the samples using the standard curves. Determine the percent encapsulation of the sample by dividing the difference in concentrations between sample+triton and sample in buffer alone by the sample+triton concentration.

| Compound | % encapsulation mRNA Leptin |
| --- | --- |
| CCCCCCCCCCCCC(CCOC(=O)CCCCC(OCCCCCCCC)OCCCCCCCC)OC(=O)CCCCN(CC)CC (stereo not drawn) [Example 123, 3-((5-(diethylamino)pentanoyl)oxy)pentadecyl 6,6-bis(octyloxy)hexanoate] | 83.8% |
| CCCCCCCCCCCCC(CCOC(=O)CCCCC(OCCCCCCCC)OCCCCCCCC)OC(=O)C1(C)CCN(C)C1 (stereo not drawn) [Example 120, 1-((6,6-bis(octyloxy)hexanoyl)oxy) pentadecan-3-yl 1,3-dimethylpyrrolidine-3-carboxylate] | 96.1% |
| CCCCCCCCCCCCC(CCC(=O)OC(COC(=O)CCCCCCC)COC(=O)CCCCCCC)OC(=O)OCCCN(C)CC (stereo not drawn) [Example 93, 2-((4-(((3-(ethyl(methyl)amino)propoxy)carbonyl)oxy)hexadecanoyl)oxy)propane-1,3-diyl dioctanoate] | 82.0% |
| CCCCCCCCCCCCC(CCOC(=O)CCCCC(OCCCCCCCC)OCCCCCCCC)OC(=O)OCC1CCN(C)CC1 (stereo not drawn) [Example 111, 3-((((1-methylpiperidin-4-yl)methoxy)carbonyl)oxy)pentadecyl 6,6-bis(octyloxy)hexanoate] | 74.7% |
| CCCCCCCCCCCCC(CCOC(=O)CCCCC1OC(CCCCCCC)CC(CCCCCCC)O1)OC(=O)OCCCN(CC)CC (stereo not drawn) [Example 124, 3-(((3-(diethylamino)propoxy)carbonyl)oxy)pentadecyl 5-(4,6-diheptyl-1,3-dioxan-2-yl)pentanoate] | 98.0% |
| CCCCCCCCCCCCC(CCOC(=O)CCCCC(OCCCCCCCC)OCCCCCCCC)OC(=O)OCCCN1CCOCC1 (stereo not drawn) [Example 112, 3-(((3-morpholinopropoxy)carbonyl)oxy) pentadecyl 6,6-bis(octyloxy) hexanoate] | 32.9% |
| CCCCCCCCCCCCCC(=O)OCC(COC(=O)CCCCCCCCCCCCC)OC(=O)CCC(CCCCCCCCCCCC)OC(=O)OCCCN(C)CC (stereo not drawn) [Example 86, 2-((4-(((3-(ethyl(methyl)amino)propoxy)carbonyl)oxy)hexadecanoyl)oxy)propane-1,3-diyl ditetradecanoate] | 68.5% |
| CCCCCCCCCCCCC(CCOC(=O)CCC(OCCCCCCCC)OCCCCCCCC)OC(=O)OCCCN(C)C (stereo not drawn) [Example 106, 3-(((3-(dimethylamino)propoxy)carbonyl)oxy)pentadecyl 4,4-bis(octyloxy)butanoate] | 96.3% |
| CCCCCCCCCCCCC(CCOC(=O)CCCCC(OCCCCCCCC)OCCCCCCCC)OC(=O)C1(C)CCN(C)CC1 (stereo not drawn) [Example 122, 1-((6,6-bis(octyloxy)hexanoyl)oxy) pentadecan-3-yl 1,4-dimethylpiperidine-4-carboxylate] | 97.5% |
| CCCCCCCC(=O)OCCCCCCCCCCC(CCOC(=O)CCCCCC(CCCCCC)CCCCCC)OC(=O)OCCCN(C)C (stereo not drawn) [Example 64, 3-(((3-(dimethylamino)propoxy)carbonyl)oxy)-13-(octanoyloxy)tridecyl 7-hexyltridecanoate] | 93.0% |
| CCCCCCCCOC(CCCCC(=O)OCCC(CCCCCCCC)OC(=O)OCCCN(CC)CC)OCCCCCCCC (stereo not drawn) [Example 125, 3-(((3-(diethylamino)propoxy)carbonyl)oxy)undecyl 6,6-bis(octyloxy)hexanoate] | 95.1% |
| CCCCCCCCCCCCC(CCOC(=O)CCCCC(OCCCCCCCC)OCCCCCCCC)OC(=O)[C@H]1CCCN1C (stereo partly drawn) [Example 117, (2R)-1-((6,6-bis(octyloxy)hexanoyl)oxy) pentadecan-3-yl 1-methyl pyrrolidine-2-carboxylate] | 5.0% |
| CCCCCCCCCCCCC(CCOC(=O)CCCCC(OCCCCCCCC)OCCCCCCCC)OC(=O)OCCCCN(CC)CC (stereo not drawn) [Example 109, 3-(((4-(diethylamino)butoxy)carbonyl)oxy)pentadecyl 6,6-bis(octyloxy)hexanoate] | 80.6% |
| CCCCCCCCCCCCC(CCOC(=O)CCCCC(OCC(CCC)CCC)OCC(CCC)CCC)OC(=O)OCCCN(CC)CC (stereo not drawn) [Example 114, 3-(((3-(diethylamino)propoxy)carbonyl)oxy)pentadecyl 6,6-bis((2-propylpentyl)oxy)hexanoate] | 98.4% |
| CC/C=C\C/C=C\C/C=C\CCCCCCCC(=O)OCC(COC(=O)CCCCCCC/C=C\C/C=C\C/C=C\CC)OC(=O)CCC(CCCCCCCCCCCC)OC(=O)OCCCN(C)C (stereo not drawn) [Example 82, (9Z,9′Z,12Z,12′Z,15Z,15′Z)-2-((4-(((3-(dimethylamino)propoxy)carbonyl)oxy)hexadecanoyl)oxy)propane-1,3-diyl bis(octadeca-9,12,15-trienoate)] | 81.9% |
| CCCCC/C=C\C/C=C\CCCCCCCCC(CCOC(=O)CCCCC(OCCCCCCCC)OCCCCCCCC)OC(=O)OCCCN(CC)CC (stereo not drawn) [Example 127, (12Z,15Z)-3-(((3-(diethylamino)propoxy)carbonyl)oxy)henicosa-12,15-dien-1-yl 6,6-bis(octyloxy)hexanoate] | 96.7% |
| CCCCCCCCCCCCC(CCOC(=O)CCCCC(OCCCCCCCC)OCCCCCCCC)OC(=O)[C@H]1CCCN1 (stereo partly drawn) [Example 119, (2R)-1-((6,6-bis(octyloxy)hexanoyl)oxy)pentadecan-3-yl pyrrolidine-2-carboxylate] | 95.7% |
| CCCCCCCCCCCCC(CCOC(=O)CCCCC(OCCCCCCCC)OCCCCCCCC)OC(=O)OCCCN1CCCCC1 (stereo not drawn) [Example 107, 3-(((3-(piperidin-1-yl)propoxy)carbonyl)oxy)pentadecyl 6,6-bis(octyloxy)hexanoate] | 94.5% |

More lines, now with the values ahead:

| % encapsulation mRNA Leptin | Compound |
| --- | --- |
| 95.5% | CCCCCCCCCCCCC(CCCOC(=O)CCCCC(COC(=O)CCCCCCC)COC(=O)CCCCCCC)OC(=O)C1(C)CCN(C)C1 (stereo not drawn) [Example 132, 2-(5-((4-((1,3-dimethylpyrrolidine-3-carbonyl)oxy)hexadecyl)oxy)-5-oxopentyl)propane-1,3-diyl dioctanoate] |
| 94.9% | CCCCCCCCCCCCC(CCOC(=O)CCCCC(COC(=O)CCCCCCC)COC(=O)CCCCCCC)OC(=O)OCCCN1CCCCC1 (stereo not drawn) [Example 141, 2-(5-oxo-5-((3-(((3-(piperidin-1-yl)propoxy)carbonyl)oxy)pentadecyl)oxy)pentyl)propane-1,3-diyl dioctanoate] |
| 96.6% | CCCCCCCCCCCCC(CCCOC(=O)CCCCC(COC(=O)CCCCCCC)COC(=O)CCCCCCC)OC(=O)O[C@H]1CCN(C)C1 (stereo partly drawn) [Example 134, 2-(5-((4-(((((S)-1-methylpyrrolidin-3-yl)oxy)carbonyl)oxy)hexadecyl)oxy)-5-oxopentyl)propane-1,3-diyl dioctanoate] |
| 98.1% | CCCCCCCCCCCCC(CCCOC(=O)CCCCC(COC(=O)CCCCCCC)COC(=O)CCCCCCC)OC(=O)OC1CCN(C)CC1 (stereo not drawn) [Example 137, 2-(5-((4-((((1-methylpiperidin-4-yl)oxy)carbonyl)oxy)hexadecyl)oxy)-5-oxopentyl)propane-1,3-diyl dioctanoate] |
| 92.5% | CCCCCCCCCCCCC(CCOC(=O)OCCCN(CC)CC)OC(=O)CCCCC(COC(=O)CCCCCCC)COC(=O)CCCCCCC (stereo not drawn) [Example 142, 2-(12-dodecyl-3-ethyl-8,14-dioxo-7,9,13-trioxa-3-azaoctadecan-18-yl)propane-1,3-diyl dioctanoate] |
| 96.8% | CCCCCCCCCCCCC(CCCC(=O)OCCCC(OCCCCCCCC)OCCCCCCCC)OC(=O)OCCCN(CC)CC (stereo not drawn) [Example 129, 4,4-bis(octyloxy)butyl 5-(((3-(diethylamino)propoxy)carbonyl)oxy)heptadecanoate] |
| 92.9% | CCCCCCCCCCCCC(CCCOC(=O)CCCCC(COC(=O)CCCCCCC)COC(=O)CCCCCCC)OC(=O)OCCCN(CC)CC (stereo not drawn) [Example 138, 2-(10-dodecyl-3-ethyl-8,15-dioxo-7,9,14-trioxa-3-azanonadecan-19-yl)propane-1,3-diyl dioctanoate] |
| 96.2% | CCCCCCCCCCCCC(CCCOC(=O)CCCCC(COC(=O)CCCCCCC)COC(=O)CCCCCCC)OC(=O)O[C@@H]1CCN(C)C1 (stereo partly drawn) [Example 135, 2-(5-((4-(((((R)-1-methylpyrrolidin-3-yl)oxy)carbonyl)oxy)hexadecyl)oxy)-5-oxopentyl)propane-1,3-diyl dioctanoate] |
| 86.2% | CCCCCCCCOC(CCCCC(=O)OCCC(CCCOC(=O)CCCCCCC)OC(=O)OCCCN(CC)CC)OCCCCCCCC (stereo not drawn) [Example 128, 6-((6,6-bis(octyloxy)hexanoyl)oxy)-4-(((3-(diethylamino)propoxy)carbonyl)oxy)hexyl octanoate] |
